Patent publication US6337417B1, “N-phenyltetrahydrophthalamic acid derivatives, methods of producing same, and herbicides containing same as effective components” (Central Glass Co., Ltd., priority 1994, dated 2002)

Tests used:
Assay type in all cases: in vivo
Design in all cases: key: 5: completely killed; 4: seriously injured; 3: considerably injured; 2: somewhat injured; 1: slightly injured; 0: not injured (normally grown)
paddy rice = assay: Experiment 4 flooded soil treatment: injury to paddy rice; settings: 4 weeks after treatment
Source text: (§1) Paddy soil (clay loam) was put into a pot so as to have a surface area of 1/15500 ares. Uniformly mixed seeds of several kinds of weeds, viz., nobie (barnyardgrass, Echinochloa spp.), broad-leaved weeds, hotarui (bulrush, Scirpus juncoides) and tamagayatsuri (small-flowered umbrellaplant, Cyperus difformis), were sown in the surface layer of the soil in each pot, and then paddy rice seedlings at the two- or three-leaved stage were transplanted into each pot to a depth of 2 cm, and water was fed into each pot so as to provide a 3 cm deep water layer on the soil surface. After 3 days, in other words at the initial stage of germination of nobie (barnyardgrass, Echinochloa spp.), a predetermined amount of a selected compound obtained in a manner analogous to Example 11 in the form of diluted aqueous solution was dropped into the water layer in each pot. After that, the pots were kept in a glass chamber to allow the paddy rice and the weeds to grow, and after the lapse of 4 weeks from the treatment with the selected compounds, the herbicidal effects and the degree of injury to the paddy rice were evaluated. The evaluation of the herbicidal effects was similarly conducted as to that of Experiment 1.

[1] = tested on: nobie (barnyardgrass, Echinochloa spp.); assay: Experiment 4 flooded soil treatment: nobie; settings: 4 weeks after treatment
Source text: as §1

broad-leaved weeds = assay: Experiment 4 flooded soil treatment: broad-leaved weeds; settings: 4 weeks after treatment
Source text: as §1

[2] = tested on: hotarui (bulrush, Scirpus juncoides); assay: Experiment 4 flooded soil treatment: hotarui; settings: 4 weeks after treatment
Source text: as §1

[3] = tested on: tamagayatsuri (small-flowered umbrellaplant, Cyperus difformis); assay: Experiment 4 flooded soil treatment: tamagayatsuri; settings: 4 weeks after treatment
Source text: as §1

rice = assay: Experiment 5 foliage treatment: rice; settings: foliage spray of wettable powder suspension, evaluated 4 weeks after treatment
Protocol: (§2) Upon seedling stage (two- or three-leaved stage) of rice, cockspur (Panicum crus-galli), garden radish, aobiyu (slender amaranth, Amaranthus viridis) and mehishiba (henry crabgrass, Digitaria cliaris) which were grown on a cultivated soil put in pots of 1/15500 ares, a selected compound obtained in a manner analogous to Example 11, in suspended wettable powder, was sprayed to each plant. After that, the pots were kept in a glass chamber to allow each plant to grow, and after the lapse of 4 weeks from the treatment with the selected compounds the herbicidal effects were evaluated. The evaluation of the herbicidal effects was similarly conducted as that of Experiment 1.

[4] = tested on: cockspur (Panicum crus-galli); assay: Experiment 5 foliage treatment: cockspur; settings: foliage spray of wettable powder suspension, evaluated 4 weeks after treatment
Protocol: as §2

garden radish = assay: Experiment 5 foliage treatment: garden radish; settings: foliage spray of wettable powder suspension, evaluated 4 weeks after treatment
Protocol: as §2

[5] = tested on: aobiyu (slender amaranth, Amaranthus viridis); assay: Experiment 5 foliage treatment: aobiyu; settings: foliage spray of wettable powder suspension, evaluated 4 weeks after treatment
Protocol: as §2

[6] = tested on: mehishiba (henry crabgrass, Digitaria cliaris); assay: Experiment 5 foliage treatment: mehishiba; settings: foliage spray of wettable powder suspension, evaluated 4 weeks after treatment
Protocol: as §2

SMILES | Injury of Paddy (paddy rice; 3.13 g/10a) | Injury of Paddy (paddy rice; 6.25 g/10a) | Herbicidal Effect nobie ([1]; 3.13 g/10a) | Herbicidal Effect nobie ([1]; 6.25 g/10a) | Herbicidal Effect broad-leaved weed (broad-leaved weeds; 3.13 g/10a) | Herbicidal Effect broad-leaved weed (broad-leaved weeds; 6.25 g/10a) | Herbicidal Effect hotarui ([2]; 3.13 g/10a) | Herbicidal Effect hotarui ([2]; 6.25 g/10a) | Herbicidal Effect tamagayatsuri ([3]; 3.13 g/10a) | Herbicidal Effect tamagayatsuri ([3]; 6.25 g/10a) | Herbicidal Effect rice (rice; 40 g/10a) | Herbicidal Effect rice (rice; 80 g/10a) | Herbicidal Effect cockspur ([4]; 40 g/10a) | Herbicidal Effect cockspur ([4]; 80 g/10a) | Herbicidal Effect garden radish (garden radish; 40 g/10a) | Herbicidal Effect garden radish (garden radish; 80 g/10a) | Herbicidal Effect aobiyu ([5]; 40 g/10a) | Herbicidal Effect aobiyu ([5]; 80 g/10a) | Herbicidal Effect mehishiba ([6]; 40 g/10a) | Herbicidal Effect mehishiba ([6]; 80 g/10a)
C#CC(C)Oc1cc(N(C(=O)C2=C(C(=O)OCCC)CCCC2)C(=O)c2cccnc2)c(F)cc1Cl (stereo not shown) [Compound No. 58] | 0 | 0.5 | 5 | 5 | 5 | 5 | 4 | 4.5 | 5 | 5 | 1 | 1 | 1 | 1 | 5 | 5 | 5 | 5 | 1 | 3
COC(=O)C1=C(C(=O)N(C(=O)c2cccnc2)c2cc(OC(C)C)c(Cl)cc2F)CCCC1 [compound 56] | 0.5 | 0.5 | 5 | 5 | 4.5 | 5 | 5 | 5 | 5 | 5 | 1 | 1 | 1 | 1 | 5 | 5 | 5 | 5 | 1 | 1
C#CC(C)Oc1cc(N(C(=O)C2=C(C(=O)OCCCC)CCCC2)C(=O)c2cccnc2)c(F)cc1Cl (stereo not shown) [compound 59] | 0.5 | 0.5 | 5 | 5 | 5 | 5 | 4 | 4 | 5 | 5 | 1 | 1 | 0 | 1 | 5 | 5 | 5 | 5 | 1 | 1
C#CCOC(=O)C1=C(C(=O)N(C(=O)c2cccnc2)c2cc(OC(C)C#C)c(Cl)cc2F)CCCC1 (stereo not shown) [compound 61] | 0 | 0.5 | 5 | 5 | 5 | 5 | 4 | 4 | 5 | 5 | 3 | 4 | 2 | 2 | 5 | 5 | 5 | 5 | 4.5 | 5
C#CC(C)Oc1cc(N(C(=O)C2=C(C(=O)OC3CCCC3)CCCC2)C(=O)c2cccnc2)c(F)cc1Cl (stereo not shown) [compound 62] | 0 | 0.5 | 5 | 5 | 5 | 5 | 4 | 4 | 5 | 5 | 1 | 1 | 1 | 1 | 4.5 | 5 | 5 | 5 | 1 | 1
